Series [1] deals with T1, purified recombinant EhADH2 (Entamoeba histolytica, UniProt Q24803).
T1 construct: a NcoI site at the initiating ATG codon using PCR with the EhADH2 cDNA as the template; made in house; host or cells: E. coli SHH31(DE3) carrying pET/EhADH2
T1 sequence (Q24803 1-870): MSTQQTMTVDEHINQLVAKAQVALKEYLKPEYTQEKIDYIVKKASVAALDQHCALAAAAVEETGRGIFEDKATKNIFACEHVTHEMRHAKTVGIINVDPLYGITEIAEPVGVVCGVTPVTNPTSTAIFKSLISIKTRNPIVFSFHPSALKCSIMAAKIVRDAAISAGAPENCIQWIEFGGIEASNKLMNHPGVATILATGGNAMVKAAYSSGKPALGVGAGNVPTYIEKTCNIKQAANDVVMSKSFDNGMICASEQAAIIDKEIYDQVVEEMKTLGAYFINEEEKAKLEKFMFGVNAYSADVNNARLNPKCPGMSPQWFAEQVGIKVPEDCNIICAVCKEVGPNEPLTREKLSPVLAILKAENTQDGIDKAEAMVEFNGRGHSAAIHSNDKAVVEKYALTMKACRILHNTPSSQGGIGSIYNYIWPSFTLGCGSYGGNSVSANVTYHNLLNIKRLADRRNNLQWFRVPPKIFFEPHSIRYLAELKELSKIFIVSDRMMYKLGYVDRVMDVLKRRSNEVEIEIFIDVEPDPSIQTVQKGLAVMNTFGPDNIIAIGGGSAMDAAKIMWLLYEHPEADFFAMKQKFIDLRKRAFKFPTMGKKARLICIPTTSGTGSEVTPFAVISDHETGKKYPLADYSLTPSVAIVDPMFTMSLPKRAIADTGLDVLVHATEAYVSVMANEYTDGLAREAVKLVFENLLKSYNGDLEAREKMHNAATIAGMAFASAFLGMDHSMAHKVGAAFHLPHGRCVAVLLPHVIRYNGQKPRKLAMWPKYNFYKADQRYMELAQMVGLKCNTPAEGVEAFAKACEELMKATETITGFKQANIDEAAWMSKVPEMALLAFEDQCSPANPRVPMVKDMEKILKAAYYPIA
As to the kind of experiment: Substrate specificity and kinetics, ADH activity of purified recombinant EhADH2. Format: biochemical. The following applies: for substrate for the enzyme (ADH reactivity): purified recombinant EhADH2, 1 mM NAD+, pH 9.5. As for the experimental part: (§1) ADH activity of the supernatant fraction from bacterial lysates, or of the purified recombinant enzyme was assayed spectrophotometrically by measuring the decrease in absorbance at 340 nm following the oxidation of NADH to […] (21). The cuvette contained 6 mM DTT, 5 mM MgSO4, 0.1 mM Fe(NH4)2 (SO4)2, 0.4 mM NADH, 10 mM acetaldehyde, and 0.1 M MOPS-KOH buffer (pH 7.5) to give a final volume of 1.0 ml. MOPS=3-[N-Morpholino]propanesulfonic acid; DTT=dithiothreitol.
(§2) To study the substrate specificity and kinetics of the purified recombinant EhADH2 molecule, the spectrophotometric assay of ADH activity was again utilized, with 5 μg of the purified enzyme in the presence of 50 mM glycine/NaOH buffer (pH 9.5) containing 6 mM DTT, 5 mM MgSO4, 0.1 mM Fe(NH4)2 (SO4)2, 1 mM […], and varying concentrations of the substrate alcohol to be tested (11). The Km and Kcat values expressed were determined using non-linear regression to fit the values for initial velocity and substrate concentration to the Michaelis-Menten equation.

Another series deals with T2, native EhADH2 enzyme (Entamoeba histolytica, UniProt Q24803).
T2 construct: essentially identical to that reported for the native EhADH2 enzyme (80 mM) (11)
The following applies: read-out: Km reported for native EhADH2 enzyme; cited from earlier work.

The target of the next series is E. coli AdhE enzyme (Escherichia coli, UniProt P0A9Q7). The conditions noted are these: read-out: Km for the E. coli AdhE enzyme; cited from earlier work.
Sequence of E. coli AdhE enzyme (P0A9Q7 whole entry): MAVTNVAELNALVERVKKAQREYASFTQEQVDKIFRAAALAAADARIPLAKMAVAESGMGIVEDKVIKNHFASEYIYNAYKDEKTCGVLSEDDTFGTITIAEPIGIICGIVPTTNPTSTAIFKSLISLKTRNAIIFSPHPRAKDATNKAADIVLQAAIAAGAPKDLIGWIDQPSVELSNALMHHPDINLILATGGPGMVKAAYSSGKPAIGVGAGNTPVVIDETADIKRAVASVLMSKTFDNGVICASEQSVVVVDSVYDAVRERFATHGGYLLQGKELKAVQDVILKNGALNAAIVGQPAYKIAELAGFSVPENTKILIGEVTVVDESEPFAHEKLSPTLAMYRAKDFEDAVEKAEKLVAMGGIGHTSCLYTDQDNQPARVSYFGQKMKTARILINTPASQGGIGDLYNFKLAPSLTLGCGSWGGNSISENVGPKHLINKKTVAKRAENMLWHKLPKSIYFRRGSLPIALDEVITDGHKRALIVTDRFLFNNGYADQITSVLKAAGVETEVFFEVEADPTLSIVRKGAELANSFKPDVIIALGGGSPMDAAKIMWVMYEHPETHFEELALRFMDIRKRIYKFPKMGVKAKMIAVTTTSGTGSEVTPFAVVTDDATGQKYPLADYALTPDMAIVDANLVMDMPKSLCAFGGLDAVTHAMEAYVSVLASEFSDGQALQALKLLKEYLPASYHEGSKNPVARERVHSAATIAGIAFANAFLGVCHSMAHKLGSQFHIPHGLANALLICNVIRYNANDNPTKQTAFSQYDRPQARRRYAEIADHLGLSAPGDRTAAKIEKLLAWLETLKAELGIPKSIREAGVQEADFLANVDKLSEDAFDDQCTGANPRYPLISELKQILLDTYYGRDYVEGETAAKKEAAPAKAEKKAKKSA
In the next series the target is T3, EhADH1 (Entamoeba histolytica, UniProt P35630).
T3 sequence (P35630 1-366): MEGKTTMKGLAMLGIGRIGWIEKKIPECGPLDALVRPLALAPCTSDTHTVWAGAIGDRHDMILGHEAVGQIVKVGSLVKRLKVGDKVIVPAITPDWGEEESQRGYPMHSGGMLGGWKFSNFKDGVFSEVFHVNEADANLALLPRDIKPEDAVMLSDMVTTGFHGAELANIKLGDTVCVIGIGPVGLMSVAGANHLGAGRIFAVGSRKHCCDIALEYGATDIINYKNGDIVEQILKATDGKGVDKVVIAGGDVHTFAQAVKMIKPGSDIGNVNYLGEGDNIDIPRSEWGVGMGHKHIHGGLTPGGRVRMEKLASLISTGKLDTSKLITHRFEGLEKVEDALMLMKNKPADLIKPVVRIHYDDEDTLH
The conditions noted are these: NADP+-dependent EhADH1; cited from earlier work.

The subject of series [2] is E. histolytica HM1:IMSS trophozoites. As to the kind of experiment: Inhibition of E. histolytica growth (viable trophozoite count). Format: cell-based, Entamoeba histolytica. More on the design: effect on E. histolytica growth: dose or concentration left out as unconfirmed. As to the method: Anaerobic liquid cultures were grown without agitation in tubes inside the anaerobic jars at 37° C. Solid media contained 1.5% Bacto Agar (Difco, Detroit, Mich.). Trophozoites of E. histolytica HM1:IMSS were cultured axenically in BYI-S-33 medium by conventional procedure as previously described (17).
(§3) E. coli SHH31 transformed with pMON/EhADH2 were inoculated into M9 minimal liquid medium and grown under anaerobic or aerobic conditions in the presence or absence of pyrazole (Sigma Chemical Co., St. Louis, Mo.) at concentrations of 5 to 20 mM. Growth was monitored by determining the optical density (O.D.) at 600 nm at 24 and 48 hrs post-inoculation. […] Viable trophozoites were counted using a hemacytometer at days 2 and 4, and the number of trophozoites/ml recorded.

The subject of series [3] is E. coli SHH31/pMON/EhADH2. The series can be described thus: EhADH2 inhibition assay: growth of E. coli SHH31 transformed with pMON/EhADH2 (O.D. at 600 nm). The class given is cell-based. The following applies: M9 minimal liquid medium, pyrazole 5 to 20 mM, O.D. 600 nm at 24 and 48 hrs. As to the method:
E. coli and E. histolytica strains and culture conditions. Conventional E. coli strains, DH5α, BL21(DE3), and SHH31 (Δadh zch::Tn10 fadR met tyrT) (15) were used for transformation and the expression of recombinant EhADH2. Aerobic cultures were grown in LB medium with agitation at 37° C. For anaerobic growth, bacteria were incubated in anaerobic jars, BBL®GasPak® System under an H2 -CO2 atmosphere generated by BBL GAS PAK Anaerobic System Envelopes (Becton Dickinson, Cockeysville, Md.).
Anaerobic indicator strips were used to ensure anaerobic conditions. M9 minimal medium used for anaerobic growth was supplemented with glucose at 0.25%, thiamine (1 mM), CaCl2 (0.1 mM), MgSO4 (1.2 mM), and the following trace minerals: Fe(50 μM), Se(5 μM), Mo(5 μM), Mn(5 μM) (16).
Anaerobic liquid cultures were grown without agitation in tubes inside the anaerobic jars at 37° C. Solid media contained 1.5% Bacto Agar (Difco, Detroit, Mich.). […]
as §3

Another series concerns the target T4, recombinant EhADH2 (Entamoeba histolytica, UniProt Q24803).
T4 construct: a NcoI site at the initiating ATG codon using PCR with the EhADH2 cDNA as the template; made in house; host or cells: E. coli SHH31(DE3) carrying pET/EhADH2
T4 sequence (Q24803 1-870): T1 sequence (Q24803 1-870)
The series can be described thus: Inhibition of purified recombinant EhADH2 enzyme (Ki). The class given is biochemical. The conditions noted are these: read-out: Ki for the recombinant EhADH2 molecule. As for the experimental part:
as §1, §2

Substrate in series [4]: CCO
As to the kind of experiment: Substrate specificity and kinetics, ADH activity of purified recombinant EhADH2. Format: biochemical, Entamoeba histolytica. The following applies: other: reaction ethanol + NAD+.

Substrate in series [5]: CCCO
Described as above. Format: biochemical, Entamoeba histolytica. The conditions noted are these: other: reaction 1-propanol + NAD+.

Substrate in series [6]: NC(=O)C1=CN([C@@H]2O[C@H](COP(=O)(O)OP(=O)(O)OC[C@H]3O[C@@H](n4cnc5c(N)ncnc54)[C@H](O)[C@@H]3O)[C@@H](O)[C@H]2O)C=CC1
Described as above. Format: biochemical, Entamoeba histolytica. The conditions noted are these: other: reaction acetaldehyde + NADH.

Substrate in series [7]: CC=O
The description is as above. The class given is biochemical, Entamoeba histolytica. The following applies: other: reaction acetaldehyde + NADH.

Substrate in series [8]: NC(=O)C1=CN([C@@H]2O[C@H](COP(=O)(O)OP(=O)(O)OC[C@H]3O[C@@H](n4cnc5c(N)ncnc54)[C@H](O)[C@@H]3O)[C@@H](O)[C@H]2O)C=CC1
As to the kind of experiment: ALDH activity kinetics of purified recombinant EhADH2. The class given is biochemical, Entamoeba histolytica. The conditions noted are these: other: reaction acetyl-CoA + NADH; pH 9.5. As for the experimental part: (§4) ALDH activity was assayed using the same method, with the substitution of 0.1 mM acetyl-CoA for acetaldehyde in the reaction buffer. A unit of enzyme activity is defined as the micromoles of product formed per min of incubation at room temperature.
as §2

Substrate in series [9]: CC(=O)SCCNC(=O)CCNC(=O)[C@H](O)C(C)(C)COP(=O)(O)OP(=O)(O)OC[C@H]1O[C@@H](n2cnc3c(N)ncnc32)[C@H](O)[C@@H]1OP(=O)(O)O
The series is described as above. The class given is biochemical, Entamoeba histolytica. The following applies: other: reaction acetyl-CoA + NADH; pH 9.5. As to the method: as §4, §2

One may read the Km as the substrate concentration at which the rate is half of its maximum. As a reminder, the Ki is a dissociation constant, usually derived from enzyme kinetics or from competition with a known ligand.

With `NC(=O)c1ccc[n+]([C@@H]2O[C@H](COP(=O)(O)OP(=O)(O)OC[C@H]3O[C@@H](n4cnc5c(N)ncnc54)[C@H](O)[C@@H]3O)[C@@H](O)[C@H]2O)c1` [NAD^+], the Km in [1] (reaction 1-propanol + NAD+) came to 250 µM; in [1] (reaction ethanol + NAD+) it was 550 µM.
For the molecule `CC=O` [acetaldehyde], the Km at native EhADH2 enzyme is 150 µM.
Take `CCO` [ethanol]: the Michaelis constant (Km) was 30000 µM on E. coli AdhE enzyme and 80000 µM on native EhADH2 enzyme.
`CC(C)O` [isopropanol]: the “substrate for the enzyme (ADH reactivity)” value (from here on “substrate for the enzyme”) in series [1] is on record as “No reactivity”.
As to `CO` [methanol], the “substrate for the enzyme” value in series [1] is “neither retinol nor methanol were substrates”.
`c1cn[nH]c1` [pyrazole]: the values for the Ki at EhADH1 and on recombinant EhADH2 were 0.0014 mM and 7.24 mM, respectively. Besides, the “effect on E. histolytica growth” value in [2] is “no effect”. The “inhibition of growth of E. histolytica trophozoites” value in series [2] (concentration of 20 to 40 mM, viable trophozoites at days 2 and 4) was “significantly inhibited amebic growth”. In addition, the “effect on growth under aerobic conditions” value in [3] (aerobic) is on record as “much reduced effect”. Further, the “inhibition of anaerobic growth of SHH31/pMON/EhADH2” value in series [3] (anaerobic) is reported as “in a dose-dependent manner significantly inhibited”.
For the molecule `CC1=C(/C=C/C(C)=C/C=C/C(C)=C/CO)C(C)(C)CCC1` [retinol], in series [1], the “substrate for the enzyme” value is “neither retinol nor methanol were substrates”.
Same read-out and setting: the entry for `CCC(C)O` (stereo not drawn) [sec-butanol] is “No reactivity”.

B1: purified recombinant EhADH2 (Entamoeba histolytica HM-1:IMSS) (protein)
chain: T1 sequence (Q24803 1-870)
notes: a NcoI site at the initiating ATG codon using PCR with the EhADH2 cDNA as the template; made in house; host or cells: E. coli SHH31(DE3) carrying pET/EhADH2
As for B1, the Michaelis-Menten constant (Km) in series [4] was found to be 85000 µM; in series [5], 40000 µM; in series [6], 280 µM; in series [7] it was 2900 µM; in series [8], 170 µM; in series [9], 40 µM.

The record behind these values is patent publication US5807700A, “Method of screening anti-amebic agents with an E. coli mutant having a deleted adhE gene complemented by the E. histolytica EhADH2 gene” (Washington University, priority 1995, dated 1998).
